This is an account of results in ChEMBL document CHEMBL4396950, “A rational search for discovering potential neutraligands of human complement fragment 5a (hC5a)” (Bioorg Med Chem, 2019).

Activity calls are given as the source filed them. The rule behind the calls is not given here.

Test [1] addresses T1, Complement C5 (Homo sapiens, UniProt P01031). Put plainly: Binding affinity to human C5a assessed as Potassium iodide-induced quenching by measuring Stern-Volmer quenching constant at 1 uM by fluorescence analysis.
Test [2] has as its target T1, Complement C5. Description: Induction of recombinant human C5a destabilization assessed as intrinsically disordered structure at 8 M incubated for 1 hr by fluorescence analysis.
Test [3] addresses T1, Complement C5. Put plainly: Induction of recombinant human C5a destabilization assessed as intrinsically disordered structure at 2 to 8 M by circular dichroism analysis. Background: Circular dichroism is the unequal absorption of left and right circularly polarised light.
In test [4] the target is T1, Complement C5. Description: Induction of recombinant human C5a destabilization assessed as intrinsically disordered structure at 8 M incubated for overnight by fluorescence analysis.
In test [5] the target is T1, Complement C5. Put plainly: Binding affinity to human C5a assessed as dissociation constant after 1 hr by circular dichroism analysis.
In test [6] the target is T1, Complement C5. Description: Induction of recombinant human C5a destabilization assessed as protein unfolding at 6 M after 1 hr by fluorescence analysis.
Test [7] addresses T1, Complement C5. Put plainly: Induction of recombinant human C5a destabilization assessed as protein unfolding at 6 M incubated for overnight by fluorescence analysis.
Test [8] deals with T1, Complement C5. Description: Induction of recombinant human C5a destabilization assessed as intrinsically disordered structure at 2 to 4 M by circular dichroism analysis.
For test [9], the target named is T1, Complement C5. Put plainly: Induction of recombinant human C5a destabilization assessed as protein unfolding at 6 M by circular dichroism analysis.
Test [10] has as its target T1, Complement C5. Put plainly: Binding affinity to recombinant human C5a assessed as conformational change at 1 to 100 uM incubated for 1 hr at 4degC by circular dichroism analysis.
The target in test [11] is T1, Complement C5. Description: Induction of human recombinant C5a unfolding by circular dichroism analysis.
Test [12] deals with T1, Complement C5. Put plainly: Binding affinity to recombinant human C5a assessed as loss of super secondary structure at > 10 uM incubated for 1 hr at 4 degC by circular dichroism analysis.
In test [13] the target is T1, Complement C5. Put plainly: Binding affinity to human C5a assessed as induction of conformational change with no shift in absorption maxima at 1 uM by fluorescence analysis.
The target of test [14] is T1, Complement C5. Description: Binding affinity to recombinant human C5a assessed as conformational change =< 1 uM at 4 degC incubated for 1 hr by circular dichroism analysis.
The target in test [15] is T1, Complement C5. Put plainly: Induction of human recombinant C5a destabilization assessed as protein structure helicity up to 10 uM by circular dichroism analysis.
The target in test [16] is T1, Complement C5. Description: Binding affinity to human C5a assessed as loss of secondary structure by measuring red shift in absorption maxima at 10 to 100 uM by fluorescence analysis.

Consider `CC(=O)N[C@@H](Cc1c[nH]c2ccccc12)C(N)=O`, for which the KSV in test [1] amounted to 12.4 M⁻¹.

`NC(N)=O`: the result in [2], in test [3] and in test [4] was Active.

On to `CC(C(=O)O)c1ccc2c(c1)[nH]c1ccc(Cl)cc12` (stereo not drawn) [CARPROFEN], for which the KSV in [1] was determined as 2.6 M⁻¹. Moreover, the Kd in [5] is 580 nM.

In the case of `N=C(N)N`, the outcome in test [6], in [7], in [8] and in test [9] was Active.

As for `CC1=C(CC(=O)O)c2cc(F)ccc2/C1=C\c1ccc([S+](C)[O-])cc1` (stereo not drawn), the outcome in test [10], in test [11], in test [12], in test [13], in test [14] and in test [16] was Active. Further, the KSV in [1] amounted to 2.5 M⁻¹. The Kd in test [5] was 570 nM. Further, the Activity in test [15] came to 5%.

On to `O=C(O)CCc1nc(-c2ccccc2)c(-c2ccccc2)o1` [OXAPROZIN], for which, in [1], the KSV turned out to be 4.3 M⁻¹. Further, the dissociation constant Kd in [5] is 640 nM.

Regarding `O=C(c1ccc(OCCN2CCCCC2)cc1)c1c(-c2ccc(O)cc2)sc2cc(O)ccc12` [RALOXIFENE], in [1], the KSV turned out to be 1.1 M⁻¹. For the same molecule, the dissociation constant (Kd) in test [5] turned out to be 710 nM.

Broadly, the Kd is the free concentration of one partner at which half of the binding sites on the other are occupied at equilibrium, for simple one-to-one binding.
